Results: ChEMBL document CHEMBL2073850, “Human organic anion transporters and human organic cation transporters mediate renal transport of prostaglandins” (J Pharmacol Exp Ther, 2002)

How the values were obtained:
Type in all cases: functional, cell-based
Set-up in all cases: scale not given: the % may be the effect or the level left
[1] = biological target: T1, OCT2 (Solute carrier family 22 member 2) (Homo sapiens, UniProt O15244); experiment: TP_TRANSPORTER: inhibition of TEA uptake (TEA: 5 uM, PGF2alpha: 1000 uM) in OCT2-expressing S2 cells; settings: mouse, probe TEA, read-out: Activity
T1 sequence (O15244 whole entry): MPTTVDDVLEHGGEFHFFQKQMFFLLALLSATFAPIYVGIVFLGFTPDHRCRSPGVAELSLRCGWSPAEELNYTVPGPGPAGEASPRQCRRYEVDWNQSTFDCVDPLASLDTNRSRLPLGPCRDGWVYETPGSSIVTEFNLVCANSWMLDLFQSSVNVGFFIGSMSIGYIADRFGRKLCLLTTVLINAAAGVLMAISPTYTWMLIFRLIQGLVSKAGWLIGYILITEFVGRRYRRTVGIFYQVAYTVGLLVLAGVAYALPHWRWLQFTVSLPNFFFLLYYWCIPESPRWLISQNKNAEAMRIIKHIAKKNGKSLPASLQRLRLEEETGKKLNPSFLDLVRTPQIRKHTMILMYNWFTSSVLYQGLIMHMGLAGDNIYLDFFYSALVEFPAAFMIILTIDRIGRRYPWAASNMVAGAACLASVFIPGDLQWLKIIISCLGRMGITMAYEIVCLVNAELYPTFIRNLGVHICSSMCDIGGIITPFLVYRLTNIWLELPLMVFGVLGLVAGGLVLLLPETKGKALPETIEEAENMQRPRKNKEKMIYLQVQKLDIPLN

[2] = biological target: T2, OAT1 (Solute carrier family 22 member 6) (Homo sapiens, UniProt Q4U2R8); experiment: TP_TRANSPORTER: inhibition of PAH uptake (PAH: 5 uM, PGF2alpha: 1000 uM) in OAT1-expressing S2 cells; settings: mouse, probe PAH, read-out: Activity
T2 sequence (Q4U2R8 whole entry): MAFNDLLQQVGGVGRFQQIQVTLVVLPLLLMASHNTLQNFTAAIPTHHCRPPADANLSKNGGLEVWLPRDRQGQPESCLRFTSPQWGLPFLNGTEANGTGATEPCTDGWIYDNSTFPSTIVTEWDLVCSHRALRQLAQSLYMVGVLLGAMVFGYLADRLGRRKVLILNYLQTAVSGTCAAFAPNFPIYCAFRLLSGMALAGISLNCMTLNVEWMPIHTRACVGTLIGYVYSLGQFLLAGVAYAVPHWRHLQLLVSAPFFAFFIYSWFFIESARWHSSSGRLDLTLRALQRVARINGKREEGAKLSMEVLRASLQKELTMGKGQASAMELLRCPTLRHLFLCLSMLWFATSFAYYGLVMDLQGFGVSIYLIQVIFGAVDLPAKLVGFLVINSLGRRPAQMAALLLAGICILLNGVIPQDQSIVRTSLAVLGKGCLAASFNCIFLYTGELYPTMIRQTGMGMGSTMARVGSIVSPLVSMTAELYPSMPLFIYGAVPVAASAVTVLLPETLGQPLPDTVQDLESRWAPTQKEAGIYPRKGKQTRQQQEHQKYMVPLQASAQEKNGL

[3] = biological target: T3, OAT3 (Organic anion transporter 3) (Homo sapiens, UniProt Q8TCC7); experiment: TP_TRANSPORTER: inhibition of ES uptake (ES: 0.05 uM, PGF2alpha: 30 uM) in OAT3-expressing S2 cells; settings: probe ES, read-out: Activity
T3 sequence (Q8TCC7 whole entry): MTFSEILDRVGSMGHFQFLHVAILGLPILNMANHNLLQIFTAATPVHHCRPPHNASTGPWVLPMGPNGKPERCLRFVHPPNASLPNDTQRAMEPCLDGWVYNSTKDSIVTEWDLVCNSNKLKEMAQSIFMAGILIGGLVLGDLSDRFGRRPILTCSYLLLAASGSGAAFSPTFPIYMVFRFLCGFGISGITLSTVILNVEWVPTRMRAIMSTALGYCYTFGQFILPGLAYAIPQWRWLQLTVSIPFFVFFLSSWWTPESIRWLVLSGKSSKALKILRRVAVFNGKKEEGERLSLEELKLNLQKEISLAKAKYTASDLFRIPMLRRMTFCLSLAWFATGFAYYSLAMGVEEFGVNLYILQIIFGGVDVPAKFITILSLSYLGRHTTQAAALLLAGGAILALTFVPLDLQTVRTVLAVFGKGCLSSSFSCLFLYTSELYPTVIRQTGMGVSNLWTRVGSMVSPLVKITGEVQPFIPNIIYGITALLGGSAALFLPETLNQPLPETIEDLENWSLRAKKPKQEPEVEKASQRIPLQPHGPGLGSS

[4] = biological target: T4, OAT4 (Solute carrier family 22 member 11) (Homo sapiens, UniProt Q9NSA0); experiment: TP_TRANSPORTER: inhibition of ES uptake (ES: 0.05 uM, PGF2alpha: 30 uM) in OAT4-expressing S2 cells; settings: mouse, probe ES, read-out: Activity
T4 sequence (Q9NSA0 whole entry): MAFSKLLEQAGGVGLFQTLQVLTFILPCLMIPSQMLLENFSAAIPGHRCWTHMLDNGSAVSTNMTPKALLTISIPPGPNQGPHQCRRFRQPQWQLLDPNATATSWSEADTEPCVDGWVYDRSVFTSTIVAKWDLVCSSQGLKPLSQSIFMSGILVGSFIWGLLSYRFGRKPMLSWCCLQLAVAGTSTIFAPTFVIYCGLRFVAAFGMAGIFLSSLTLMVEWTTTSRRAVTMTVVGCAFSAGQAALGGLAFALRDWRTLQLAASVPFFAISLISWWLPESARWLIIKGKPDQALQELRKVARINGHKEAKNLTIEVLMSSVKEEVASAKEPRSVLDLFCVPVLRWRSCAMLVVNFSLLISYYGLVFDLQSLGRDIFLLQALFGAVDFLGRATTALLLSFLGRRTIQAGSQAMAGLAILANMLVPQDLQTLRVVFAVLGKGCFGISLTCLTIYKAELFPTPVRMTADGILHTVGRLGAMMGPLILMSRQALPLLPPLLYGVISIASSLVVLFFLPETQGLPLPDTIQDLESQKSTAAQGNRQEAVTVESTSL

[5] = biological target: T5, Solute carrier family 22 member 1 (Homo sapiens, UniProt O15245); experiment: TP_TRANSPORTER: inhibition of TEA uptake (TEA: 5 uM, PGF2alpha: 1000 uM) in OCT1-expressing S2 cells; settings: mouse, s2, 1000 µM
T5 sequence (O15245 whole entry): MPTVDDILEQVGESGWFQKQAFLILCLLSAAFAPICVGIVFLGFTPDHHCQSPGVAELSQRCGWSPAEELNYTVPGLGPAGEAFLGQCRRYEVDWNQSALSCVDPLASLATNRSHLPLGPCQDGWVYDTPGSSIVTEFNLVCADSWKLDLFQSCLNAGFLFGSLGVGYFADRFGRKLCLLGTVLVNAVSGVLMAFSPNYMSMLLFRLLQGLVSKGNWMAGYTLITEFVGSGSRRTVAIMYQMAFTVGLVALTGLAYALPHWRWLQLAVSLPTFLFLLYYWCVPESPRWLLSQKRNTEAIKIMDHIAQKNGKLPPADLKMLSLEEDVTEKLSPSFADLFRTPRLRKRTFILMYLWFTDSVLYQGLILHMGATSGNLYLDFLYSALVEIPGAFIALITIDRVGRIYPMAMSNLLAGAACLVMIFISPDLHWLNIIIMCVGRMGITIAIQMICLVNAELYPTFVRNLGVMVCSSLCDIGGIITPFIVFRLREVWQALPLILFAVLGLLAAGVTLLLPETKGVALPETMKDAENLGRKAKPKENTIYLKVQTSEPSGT

[6] = biological target: T4, OAT4 (Solute carrier family 22 member 11); experiment: TP_TRANSPORTER: inhibition of ES uptake (ES: 0.05 uM, PGE2: 30 uM) in OAT4-expressing S2 cells; settings: probe ES, read-out: Activity
[7] = biological target: T6, OCT1 (Solute carrier family 22 member 1) (Homo sapiens, UniProt O15245); experiment: TP_TRANSPORTER: inhibition of TEA uptake (TEA: 5 uM, PGE2: 1000 uM) in OCT1-expressing S2 cells; settings: probe TEA, read-out: Activity
T6 sequence (O15245 whole entry): T5 sequence (O15245 whole entry)

[8] = biological target: T7, Organic anion transporter 3 (Homo sapiens, UniProt Q8TCC7); experiment: TP_TRANSPORTER: inhibition of ES uptake (ES: 0.05 uM, PGE2: 30 uM) in OAT3-expressing S2 cells; settings: s2, 30 µM
T7 sequence (Q8TCC7 whole entry): T3 sequence (Q8TCC7 whole entry)

[9] = biological target: T8, OAT2 (Solute carrier family 22 member 7) (Homo sapiens, UniProt Q9Y694); experiment: TP_TRANSPORTER: inhibition of PGF2alpha uptake (PGF2alpha: 0.05 uM, PGE2: 30 uM) in OAT2-expressing S2 cells; settings: mouse, probe PGF2alpha, read-out: Activity
T8 sequence (Q9Y694 whole entry): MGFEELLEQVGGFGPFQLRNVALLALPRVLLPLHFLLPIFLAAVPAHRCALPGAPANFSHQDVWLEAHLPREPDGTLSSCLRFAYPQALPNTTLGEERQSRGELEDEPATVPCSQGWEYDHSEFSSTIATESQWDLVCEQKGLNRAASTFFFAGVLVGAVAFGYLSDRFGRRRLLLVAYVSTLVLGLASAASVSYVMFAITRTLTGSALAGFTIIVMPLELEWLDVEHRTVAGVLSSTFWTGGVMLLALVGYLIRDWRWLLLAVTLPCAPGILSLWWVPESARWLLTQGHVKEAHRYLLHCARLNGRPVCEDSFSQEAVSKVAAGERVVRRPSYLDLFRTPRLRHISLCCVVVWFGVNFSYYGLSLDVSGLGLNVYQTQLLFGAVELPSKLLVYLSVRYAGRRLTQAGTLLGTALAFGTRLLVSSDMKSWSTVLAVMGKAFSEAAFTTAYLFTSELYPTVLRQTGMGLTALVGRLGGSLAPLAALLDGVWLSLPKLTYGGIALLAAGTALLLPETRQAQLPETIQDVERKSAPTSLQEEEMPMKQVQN

[10] = biological target: T1, OCT2 (Solute carrier family 22 member 2); experiment: TP_TRANSPORTER: inhibition of TEA uptake (TEA: 5 uM, PGE2: 1000 uM) in OCT2-expressing S2 cells; settings: mouse, probe TEA, read-out: Activity

activity at 1000 µM [1] [%]	activity at 1000 µM [2] [%]	activity at 30 µM [3] [%]	activity at 30 µM [4] [%]	Activity [5] [%]	activity at 30 µM [6] [%]	activity at 1000 µM [7] [%]	Activity [8] [%]	activity at 30 µM [9] [%]	activity at 1000 µM [10] [%]	Structure (SMILES)
70.7	17.7	26.8	40.8	68.9	–	–	–	–	–	CCCCC[C@H](O)/C=C/[C@@H]1[C@@H](C/C=C\CCCC(=O)O)[C@@H](O)C[C@H]1O [DINOPROST]
–	–	–	–	–	57	31.4	21.8	21.2	75.6	CCCCC[C@H](O)/C=C/[C@H]1[C@H](O)CC(=O)[C@@H]1C/C=C\CCCC(=O)O [DINOPROSTONE]
